pIC50: −log10 of the molar value.
Tests used:
H1299 cells = test: Immunoblotting of cell cycle, apoptosis, MAPK and DNA repair proteins; assay type: cell-based
Method: (§1) Cell lysate was prepared with TB buffer method. For immunoblotting, ~25 μg protein was loaded on 10% SDS–PAGE gels. […] The blots were developed with clarity Western ECL (Bio-Rad, Hercules, CA, USA) and imaged with G:BOX Chemi XR5 (Syngene, Frederick, MD, USA).

H3255 cells = test: Immunoblotting of MAPK pathway proteins; assay type: cell-based; details: 7.5 μM or 10 μM, 24 h
Method: as §1

A549 cells = test: Cell cycle analysis by flow cytometry; assay type: cell-based, human; details: 0, 2, 4, and 6 μM, dose-dependent
Method: A549 and H1299 cells were plated at 1 × 10^5 cells per well of a 6-well plate. Cell cycle was carried out as previously described (Vesuna et al, [2012]). Briefly, cells were trypsinized 24 h after plating and fixed in 70% ethanol overnight at −20°C. Fixed cells were washed with PBS and resuspended in DNA-staining solution (5 μg/ml propidium iodide, 0.5 mg/ml RNase A) for 1 h at room temperature. Cell cycle acquisition was performed on a FACScan I or FACSCalibur instrument (BD Biosciences, San Jose, CA, USA). Independent experiments were repeated three times. Data were analyzed using FlowJo software (Tree Star Inc., Ashland, OR, USA).

[1] = tested on: TCF4 activity in H1299 cells; test: TCF reporter assay (TOP/FOP-FLASH); assay type: cell-based; details: 0, 1, 2, and 3 μM; wild-type and β-catenin-overexpressing cells
Method: Transcriptional activity of TCF4 was assayed using the dual luciferase assay (Promega, Madison, WI, USA) according to the manufacturer's instructions. Briefly, 1.5 × 10^4 A549 or H1299 cells were transfected with 500 ng of TOP-FLASH and control FOP-FLASH constructs along with 50 ng of phRL Renilla constructs as transfection controls as well as with 500 ng β-catenin constructs when indicated. Cells were cultured for 24 h and then lysed in passive lysis buffer. Luminescence was detected using a luminometer (Berthold Sirius, Oak Ridge, TN, USA). Relative TCF4 promoter activity was calculated by dividing firefly luminescence by Renilla luminescence, and then normalized TOP-FLASH was divided by normalized FOP-FLASH, which was finally normalized to vector or DMSO control cells. All experiments were repeated three times, and differences were assessed by the paired t-test.

H3255 = test: MTS viability assay, 72 h, line with low DDX3 expression; assay type: cell-based
Method: Proliferation was determined by counting cancer cells over time. Cells were seeded at 7.5 × 10^4 cells/well and counted daily with a TC10 automated cell counter (Bio-Rad, Hercules, CA, USA) at least three times. Viability of cancer cells was determined by MTS assay (CellTiter 96® AQueous One Solution, Promega, Madison, WI, USA) as described by the manufacturer. Briefly, 800–2,000 cells were allowed to attach overnight in a 96-well plate, treated with different concentrations of RK-33 and kept for 72 h. MTS reagent was kept for 2 h. Each experiment was repeated a minimum of three independent times.

H1299.EJ cells = test: Non-homologous end-joining reporter assay; assay type: cell-based; details: 4–6 μM
Method: NHEJ was assessed by the functional reporter system H1299-EJ, provided by E Dikomey. […] When these sites are incised by I-SceI, the artificial start codon is removed creating a DSB. Repair of this DSB by NHEJ restores GFP expression, so that cells capable for NHEJ can be identified by their GFP fluorescence intensity (Kriegs et al, [2010]). H1299.EJ cells were plated in a 6-well plate (1 × 10^5 cell/well) and treated with 4–6 μM RK-33. The following day, cells were transfected (in duplicates) with 1–2 μg of pSceI or pEGFP construct using TransIT-LT1 (Mirus, Madison, WI, USA) in serum-free media (Opti-MEM, Invitrogen, Carlsbad, CA, USA). Media was replaced after 4–6 h with complete media. Subsequently, cells were harvested by trypsinization, washed in PBS, and resuspended in 0.5 ml PBS. NHEJ activity was measured on a FACScan I instrument and analyzed on FlowJo software. Recombination frequency was calculated as ((% pSceI − % negative control) / % pEGFP). H1299-DR-GFP cells, provided by RG Bristow, were used to measure homologous recombination similarly as described above (Chan et al, [2008]).

diimidazo[4,5-d:4′,5′-f]-[1,3]diazepine [RK-33]
DNA repair proteins ATR and XRCC4 (H1299 cells; 6 μM for 4 h, then 5 Gy): decrease of ATR but not XRCC4 | phosphorylated ERK2 and ERK1 (H1299 cells; 7.5 μM or 10 μM, 24 h): reduction of phosphorylated ERK2 and ERK1 | cyclin D1 protein (H1299 cells; 10 μM, especially evident 2 h after treatment): substantial reduction of cyclin D1 | ERK1/2 phosphorylation (H3255 cells): increase of ERK1/2 phosphorylation | cell cycle effect (A549 cells): G1 arrest | TCF activity [1]: reduced TCF activity significantly | pIC50 (H3255): < 4.60 | reduction of NHEJ (H1299.EJ cells): 38%
